The values that follow come from patent EP2949653A1, “ISOXAZOLE DERIVATIVES AS LEUKOTRIENE BIOSYNTHESIS INHIBITORS” (Banoglu, Erden, priority 2014, dated 2015).

Like-named read-outs stand apart in the source and are kept apart here.

One may read the remaining activity as the share of the control activity or signal that is left under treatment.

In test [1] the test system is 5-LO mediated product formation. In words: 5-LO mediated product formation in intact neutrophils stimulated with A23187 (cell-based). Also on record: species or system human. To be noted: for IC50: Neutrophil, intact human neutrophils stimulated with 2.5 µM A23187, mean ± SE, n = 3-4, read-out: Inhibition of purified 5-LO activity IC50 (µM) cell based; for activity at 1 µM / activity at 10 µM: PMNL, human neutrophils, 2.5 µM A23187, means ± SE, n = 3-6; for activity at 1 µM: remaining activity at 1 µM inhibitor, read-out: 5-LO mediated product formation in intact neutrophils (PMNL) (% of control) at 1 µM; for activity at 10 µM: remaining activity at 10 µM inhibitor, read-out: 5-LO mediated product formation in intact neutrophils (PMNL) (% of control) at 10 µM. As to the method: (§1) Cell based and cell-free assays carried out in biological studies, immunofluorescence microscopy analysis and zymosan-induced peritonitis in mice are performed as described hereinabove (Pegola, C. and et al., British J. Pharmacology, 2014, D01:10.1111/bph.12625). In the cell based assays (intact neutrophils or monocytes), 5-LO mediated product formation is started, after pre-incubation with test compounds (or control DMSO) for 15 min. at 37 °C, with addition of Ca-ionophore A23187 (2.5 µM) to the fresh 5 x 10^6 neutrophils or monocytes suspended in 1 ml of PGC buffer (phosphate buffered saline (PBS) solution containing 1 mg ml^-1 glucose and 1mM CaCl2, pH 7.4). After the incubation for 10 min. at 37 °C, the reaction is ended with addition of 1 ml of methanol, and 30 µL 1 N HCl, 200 ng prostaglandin B1 and 500 µL PBS are added to the mixture. In cell-free assays (isolated 5-LO and cell homogenates), human recombinant 5-LO protein or 40,000g supernatant is added to 1 ml of 5-LO reaction mixture (PBS, pH 7.4, 1 mM EDTA, 1 mM ATP), and then incubated with test compounds (or control DMSO) for 10 min. at 4°C, heated to 37 °C and 2 mM CaCl2 as well as AA at certain concentrations are added. The reaction is ended as described for the cell-based assays. Resulting 5-LO mediated products are extracted and analysed by the known method of high pressure liquid chromatography (HPLC) (Pergola, C. Proc Natl. Acad. Sci. U.S.A. 2008, 105, 19881). 5-LO mediated product formation (LTB4 and all trans isomers, and 5 (S)-hydro(pero)xy-6-trans-8, 11, 14-cis-eicosatetraenoic acid, 5-H(p)ETE) is expressed as ng per 10^6 cell. Cysteinyl-LTs have not been analyzed because that the amount of C4, D4 and E4 and LTB4 oxidation products are below the detection limit.
(§2) Compounds were tested in intact human neutrophils stimulated with 2.5 µM A23187 under cell based conditions and on purified 5-LO under cell free conditions. ^aData are given as remaining activity as a percentage of control (100%) at 10 µM or 1 µM inhibitor concentrations (means ± SE, n = 3-6).
Compound 9hj inhibited 5-LO mediated product formation with IC50 of 60 nM in human neutrophils. Neutrophils are stimulated with Ca-ionophore A23187 (2.5 µM), without the addition of exogenous arachidonic acid (AA), after pre-incubation with 9hj or vehicle (0.1 % DMSO). 100% controls correspond to 275.7 ng mL^-1 of 5-LO mediated products (Figure 1).
100% controls correspond to 328.97 ng mL^-1 of 5-LO mediated products.

In test [2] the target is T1, purified 5-LO (Homo sapiens, UniProt P09917).
T1 sequence (P09917 1-674): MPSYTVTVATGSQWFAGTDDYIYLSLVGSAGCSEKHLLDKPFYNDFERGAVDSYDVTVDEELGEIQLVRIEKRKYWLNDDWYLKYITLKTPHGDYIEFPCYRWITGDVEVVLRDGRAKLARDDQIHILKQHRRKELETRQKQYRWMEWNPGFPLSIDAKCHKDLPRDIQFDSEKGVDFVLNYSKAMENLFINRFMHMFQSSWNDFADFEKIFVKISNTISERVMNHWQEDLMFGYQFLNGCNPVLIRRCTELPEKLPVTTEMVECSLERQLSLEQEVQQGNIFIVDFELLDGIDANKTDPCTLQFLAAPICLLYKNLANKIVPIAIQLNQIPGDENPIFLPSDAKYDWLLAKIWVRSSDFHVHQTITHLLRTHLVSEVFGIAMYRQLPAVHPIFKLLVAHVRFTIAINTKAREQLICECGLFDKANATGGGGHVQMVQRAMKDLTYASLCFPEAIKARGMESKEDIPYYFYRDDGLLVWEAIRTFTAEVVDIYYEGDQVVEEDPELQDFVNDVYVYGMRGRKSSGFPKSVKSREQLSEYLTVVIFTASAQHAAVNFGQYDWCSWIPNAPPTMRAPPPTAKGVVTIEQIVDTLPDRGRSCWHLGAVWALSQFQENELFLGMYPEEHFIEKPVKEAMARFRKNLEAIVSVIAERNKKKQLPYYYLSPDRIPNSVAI
In words: Purified / human recombinant 5-LO activity (cell-free). The class given is biochemical. The note with it: purified 5-LO under cell free conditions; mean ± SE, n = 3-4; read-out: Inhibition of purified 5-LO activity IC50 (µM) cell-free. As to the method: as §1, §2
9hj was added 15 min before addition of 2 mM Ca^2+ plus 3 µM, 10 µM and 30 µM AA. 100% controls correspond to 200.35 ng mL^-1 for 3 µM AA, 514.36 ng mL^-1 for 10 µM AA and 537.73 ng mL^-1 for 30 µM AA.

The target in test [3] is T1, purified 5-LO. Described as above. The class given is biochemical. To be noted: remaining 5-LO activity (percentage of uninhibited control) at 30 µM test compound.
The target of test [4] is T1, purified 5-LO. The note with it: literature value, Banoglu et al. Bioorg. Med. Chem. 2012, 20, 3728; read-out: IC50cell-free; cited from earlier work.
Test [5] relates to 5-LO mediated product formation. The note with it: literature value, Banoglu et al. Bioorg. Med. Chem. 2012, 20, 3728; read-out: IC50PMNL (cell-based assay); cited from earlier work.

For `Cc1cc(OCc2ccccc2Cl)ccc1-c1onc(C(=O)O)c1-c1ccc(Cl)cc1` [Compound 9ek, 5-(4-((2-Chlorobenzyl)oxy)-2-methylphenyl)-4-(4-chlorophenyl)isoxazole-3-carboxylic acid], in test [1], the IC50 is 1.45 ± 0.09 µM, the activity at 1 µM stood at 54.9 ± 6.46% and the activity at 10 µM stood at 2.86 ± 2.59%. The IC50 in test [2] was above 30 µM. Also, the remaining activity at 30 µM in test [3] came out at 51%.
With `Cc1cc(OCc2ccccc2C(F)(F)F)ccc1-c1onc(C(=O)O)c1-c1ccc(Cl)cc1` [Compound 9fk, 4-(4-Chlorophenyl)-5-(2-methyl-4-((2-(trifluoromethyl)benzyl)oxy)phenyl)isoxazole-3-carboxylic acid], in test [1], the IC50 is 0.82 ± 0.17 µM, the activity at 1 µM turned out to be 44 ± 10.3% and the activity at 10 µM worked out at 3.48 ± 3.05%. The IC50 in test [2] was above 30 µM. In addition, in test [3], the remaining activity at 30 µM worked out at 62%.
The matching figures for `Cc1cc(OCc2ccccn2)ccc1-c1onc(C(=O)O)c1-c1ccc(Cl)cc1` [Compound 9gk, 4-(4-Chlorophenyl)-5-(2-methyl-4-(pyridin-2-ylmethoxy)phenyl)isoxazole-3-carboxylic acid]: 1.81 ± 0.11 µM, 73.2 ± 7.42%, 0.45 ± 0.45%, above 30 µM and 73%.
The matching figures for `Cc1cc(OCc2ccc3ccccc3n2)ccc1-c1onc(C(=O)O)c1-c1ccc(Cl)cc1` [Compound 9hk, 4-(4-Chlorophenyl)-5-(2-methyl-4-(quinolin-2-ylmethoxy)phenyl)isoxazole-3-carboxylic acid]: 9.07 ± 1.98 µM, 69.1 ± 5.53%, 44.2 ± 15.7%, above 30 µM and 75%.
As for `Cc1ccccc1COc1ccc(-c2onc(C)c2-c2ccc(Cl)cc2)c(O)c1` [Compound A, reference compound], the IC50 in test [4] was 1.9 µM; in test [1] it was 4.42 ± 1.13 µM; in test [2], 1.9 ± 0.46 µM; in test [5] it was 4.4 µM. For the same molecule, the activity at 1 µM in test [1] amounted to 66.7 ± 11.5%. Further, the activity at 10 µM in test [1] was 3 ± 0.7%.
